IC50 data for 26 compounds are collected here from patent US11932658B2 (BRISTOL-MYERS SQUIBB COMPANY, priority 2016, dated 2024).

This experiment addresses T1, PAR4 (Homo sapiens, UniProt Q96RI0).
T1 construct: expressed in transfected cells; host or cells: HEK293 PAR4 Clone 1.2A (BMS Arctic ID 383940)
T1 sequence (Q96RI0 18-385): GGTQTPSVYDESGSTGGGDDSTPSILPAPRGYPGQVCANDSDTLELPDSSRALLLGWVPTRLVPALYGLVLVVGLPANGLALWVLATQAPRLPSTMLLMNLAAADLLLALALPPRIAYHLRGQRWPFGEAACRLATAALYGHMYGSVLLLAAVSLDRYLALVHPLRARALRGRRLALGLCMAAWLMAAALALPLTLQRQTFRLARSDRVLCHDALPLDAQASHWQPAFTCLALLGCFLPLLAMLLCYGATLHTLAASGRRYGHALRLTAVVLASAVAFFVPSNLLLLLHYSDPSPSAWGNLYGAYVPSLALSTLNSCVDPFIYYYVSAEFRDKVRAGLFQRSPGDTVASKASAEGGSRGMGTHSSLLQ
The experiment can be described thus: PAR4 FLIPR assay (antagonism of agonist peptide-induced calcium mobilization). It counts as cell-based. Put shortly: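 Antagonism was taken as block of calcium mobilization evoked by the agonist peptide H-Ala-Phe(4-F)-Pro-Gly-Trp-Leu-Val-Lys-Asn-[…]-NH2, added after 30 min room-temperature compound preincubation in dye-loaded PAR4-transfected HEK293 cells (endogenous PAR1). Fluorescence was read on FDSS, with compound addition alone used as the agonist counter-screen; values come from 11-point concentration-response curves.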
For `COc1cnc2c(-c3nc4ccc5c(c4s3)OC[C@H](COC(=O)Nc3ccc([C@H](O)CO)nc3)O5)cc(C)cc2n1` [Example 111, ((R)-2-(2-methoxy-7-methylquinoxalin-5-yl)-7,8-dihydro-[1,4]dioxino[2′,3′:3,4]benzo [1,2-d]thiazol-7-yl)methyl (6-((S)-1,2-dihydroxyethyl)pyridin-3-yl)carbamate], the IC50 was determined as 2.3 nM.

`COc1cnc2c(-c3nc4c(C)cc5c(c4s3)OCC(COC(=O)Nc3cncc(Cl)c3)O5)cc(C)cc2n1` (centres unmarked) [Example 132, (2-(2-methoxy-7-methylquinoxalin-5-yl)-4-methyl-7,8-dihydro-[1,4]dioxino[2′,3′:3,4]benzo[1,2-d]thiazol-7-yl)methyl (5-chloropyridin-3-yl)carbamate]: the IC50 came to 3.9 nM.

As for `COc1cnc2c(-c3nc4cc(F)c5c(c4s3)C[C@@H](CO)O5)cc(C)cc2n1` [Example 146, (S)-(5-fluoro-2-(2-methoxy-7-methylquinoxalin-5-yl)-7,8-dihydrobenzofuro[5,4-d]thiazol-7-yl)methanol], the IC50 turned out to be 1.1 nM.

As to `COc1cc(NC(=O)OC[C@H]2COc3c(cc(C)c4nc(-c5cc(C)cc6nc(OC)cnc56)sc34)O2)ccn1` [Example 45, (R)-(2-(2-methoxy-7-methylquinoxalin-5-yl)-4-methyl-7,8-dihydro-[1,4]dioxino[2′,3′:3,4]benzo[1,2-d]thiazol-7-yl)methyl (2-methoxypyridin-4-yl)carbamate], the IC50 was 1.1 nM.

Take `COc1cnc2c(-c3nc4c(Cl)cc5c(c4s3)OC[C@H](COC(=O)Nc3cncc(Cl)c3)O5)cc(C)cc2n1` [Example 25, (R)-(4-chloro-2-(2-methoxy-7-methylquinoxalin-5-yl)-7,8-dihydro-[1,4]dioxino[2′,3′:3,4]benzo[1,2-d]thiazol-7-yl)methyl (5-chloropyridin-3-yl)carbamate]: the IC50 stood at 25 nM.

As to `COc1cnc2c(-c3nc4cc(F)c5c(c4s3)C[C@H](COC(=O)Nc3ccc(F)nc3)O5)cc(C)cc2n1` [Example 170, (R)-(5-fluoro-2-(2-methoxy-7-methylquinoxalin-5-yl)-7,8-dihydrobenzofuro[5,4-d]thiazo 1-7-yl)methyl (6-fluoropyridin-3-yl)carbamate], the IC50 worked out at 5.7 nM.

`COc1cnc2c(-c3nc4c(Cl)cc5c(c4s3)OC[C@H](COC(=O)Nc3ccncc3)O5)cc(C)cc2n1` [Example 30, (R)-(4-chloro-2-(2-methoxy-7-methylquinoxalin-5-yl)-7,8-dihydro-[1,4]dioxino[2′,3′:3,4]benzo[1,2-d]thiazol-7-yl)methyl pyridin-4-ylcarbamate]: the IC50 was 3.6 nM.

`COc1cnc2c(-c3nc4c(C)cc5c(c4s3)OCC(COC(=O)Oc3cccnc3)O5)cc(C)cc2n1` (centres unmarked) [Example 6, (2-(2-methoxy-7-methylquinoxalin-5-yl)-4-methyl-7,8-dihydro-[1,4]dioxino[2′,3′:3,4]benzo[1,2-d]thiazol-7-yl)methyl pyridin-3-yl carbonate]: the IC50 was determined as 10 nM.

On to `COc1cnc2c(-c3nc4cc(F)c5c(c4s3)C[C@H](COC(=O)Nc3ccnc(C)c3)O5)cc(C)cc2n1` [Example 160, (R)-(5-fluoro-2-(2-methoxy-7-methylquinoxalin-5-yl)-7,8-dihydrobenzofuro[5,4-d]thiazol-7-yl)methyl (2-methylpyridin-4-yl)carbamate], for which the IC50 was found to be 0.6 nM.

With `COc1cnc2c(-c3nc4ccc5c(c4s3)OC[C@H](COC(=O)Nc3ccc4[nH]c(=O)oc4c3)O5)cc(C)cc2n1` [Example 106, (R)-(2-(2-methoxy-7-methylquinoxalin-5-yl)-7,8-dihydro-[1,4]dioxino[2′,3′:3,4]benzo [1,2-d]thiazol-7-yl)methyl (2-oxo-2,3-dihydrobenzo[d]oxazol-6-yl)carbamate], the IC50 came out at 2 nM.

For the compound `COc1cnc2c(-c3nc4cc(F)c5c(c4s3)OC[C@H](CO)O5)cc(C)cc2n1` [Example 291, (S)-(5-fluoro-2-(2-methoxy-7-methylquinoxalin-5-yl)-7,8-dihydro-[1,4]dioxino[2′,3′:3,4]benzo[1,2-d]thiazol-7-yl)methanol], the IC50 came out at 59 nM.

`COc1cnc2c(-c3nc4cc(F)c5c(c4s3)C[C@H](CNC(=O)OC(C)(C)C)O5)cc(C)cc2n1` [Example 223, (R)-tert-butyl ((5-fluoro-2-(2-methoxy-7-methylquinoxalin-5-yl)-7,8-dihydrobenzofuro[5,4-d]thiazol-7-yl)methyl)carbamate]: the IC50 worked out at 5.8 nM.

On to `COc1cnc2c(-c3nc4ccc5c(c4s3)C[C@@H](COC(=O)Nc3cnc(C)nc3)O5)cc(C)cc2n1` [Example 150, (S)-(2-(2-methoxy-7-methylquinoxalin-5-yl)-7,8-dihydrobenzofuro[5,4-d]thiazol-7-yl)me thyl (2-methylpyrimidin-5-yl)carbamate], for which the IC50 is 5.4 nM.

As for `COc1cnc2c(-c3nc4c(C)cc5c(c4s3)OCC(COC(=O)Nc3ccc(N4CCN(C(=O)OC(C)(C)C)CC4)nc3)O5)cc(C)cc2n1` (centres unmarked) [Example 136, tert-butyl 4-(5-((((2-(2-methoxy-7-methylquinoxalin-5-yl)-4-methyl-7,8-dihydro-[1,4]dioxino[2′,3′:3,4]benzo[1,2-d]thiazol-7-yl)methoxy)carbonyl)amino)pyridin-2-yl) piperazine-1-carboxylate], the IC50 is 210 nM.

Turning to `Cc1cc(-c2nc3c(F)cc4c(c3s2)OC(CNC(=O)OC(C)(C)C)CO4)c2ncc(OC(F)F)nc2c1` (centres unmarked) [Example 23, tert-butyl ((2-(2-(difluoromethoxy)-7-methylquinoxalin-5-yl)-4-fluoro-7,8-dihydro-[1,4]dioxino[2′,3′:3,4]benzo[1,2-d]thiazol-8-yl)methyl)carbamate], the 50% inhibitory concentration (IC50) was found to be 9.4 nM.

Consider `COc1ccc(OC(=O)NC[C@@H]2Cc3c(c(F)cc4nc(-c5cc(C)cc6nc(OC)cnc56)sc34)O2)cc1` [Example 216, (S)-4-methoxyphenyl ((5-fluoro-2-(2-methoxy-7-methylquinoxalin-5-yl)-7,8-dihydrobenzofuro[5,4-d]thiazol-7-yl)methyl)carbamate], for which the IC50 was 2.1 nM.

For the compound `COc1cnc2c(-c3nc4c(C(O)C(C)(C)C)cc5c(c4s3)OCCO5)cc(Cl)cc2c1` (single isomer, unassigned) [Example 274, 1-(2-(6-chloro-3-methoxyquinolin-8-yl)-7,8-dihydro-[1,4]dioxino[2′,3′:3,4]benzo[1,2-d]thiazol-4-yl)-2,2-dimethylpropan-1-ol], the IC50 is 5 nM.

Turning to `COc1cnc2c(-c3nc4cc(F)c5c(c4s3)C[C@@H](CNC(=O)OCC(C)(C)C)O5)cc(C)cc2n1` [Example 261, (S)-neopentyl ((5-fluoro-2-(2-methoxy-7-methylquinoxalin-5-yl)-7,8-dihydrobenzofuro[5,4-d]thiazol-7-yl)methyl)carbamate], the IC50 is 1.1 nM.

For the compound `COc1cnc2c(-c3nc4c(C)cc5c(c4s3)OCC(COC(=O)Nc3cncc(C)c3)O5)cc(C)cc2n1` (centres unmarked) [Example 124, (2-(2-methoxy-7-methylquinoxalin-5-yl)-4-methyl-7,8-dihydro-[1,4]dioxino[2′,3′:3,4]benzo[1,2-d]thiazol-7-yl)methyl (5-methylpyridin-3-yl)carbamate], the IC50 turned out to be 3.2 nM.

In the case of `COc1cnc2c(-c3nc4ccc5c(c4s3)CC(C)(CO)O5)cc(C)cc2n1` (centres unmarked) [Example 171, (2-(2-methoxy-7-methylquinoxalin-5-yl)-7-methyl-7,8-dihydrobenzofuro[5,4-d]thiazol-7-yl)methanol], the IC50 is 45 nM.

`COc1cnc2c(-c3nc4c(Cl)cc5c(c4s3)OC[C@H](COC(=O)Nc3ccc(Cl)nc3)O5)cc(C)cc2n1` [Example 32, (R)-(4-chloro-2-(2-methoxy-7-methylquinoxalin-5-yl)-7,8-dihydro-[1,4]dioxino[2′,3′:3,4]benzo[1,2-d]thiazol-7-yl)methyl (6-chloropyridin-3-yl)carbamate]: the IC50 was 1.8 nM.

In the case of `COc1cnc2c(-c3nc4c(C(O)C(C)(C)C)cc5c(c4s3)OCO5)cc(C)cc2n1` (centres unmarked) [Example 263, 1-(7-(2-methoxy-7-methylquinoxalin-5-yl)-[1,3]dioxolo[4′,5′:3,4]benzo[1,2-d]thiazol-5-yl)-2,2-dimethylpropan-1-ol], the IC50 worked out at 5.7 nM.

For `COc1cnc2c(-c3nc4c(C)cc5c(c4s3)OCC(COC(=O)Nc3ccc4ocnc4c3)O5)cc(C)cc2n1` (centres unmarked) [Example 82, (2-(2-methoxy-7-methylquinoxalin-5-yl)-4-methyl-7,8-dihydro-[1,4]dioxino[2′,3′:3,4]benzo[1,2-d]thiazol-7-yl)methyl benzo[d]oxazol-5-ylcarbamate], the IC50 is 55 nM.

Regarding `COc1cc(NC(=O)OC[C@H]2Cc3c(c(F)cc4nc(-c5cc(C)cc6nc(OC)cnc56)sc34)O2)ccn1` [Example 163, (R)-(5-fluoro-2-(2-methoxy-7-methylquinoxalin-5-yl)-7,8-dihydrobenzofuro[5,4-d]thiazo 1-7-yl)methyl (2-methoxypyridin-4-yl)carbamate], the IC50 was 160 nM.

With `COc1cnc2c(-c3nc4cc(F)c5c(c4s3)C[C@@](C)(CNC(=O)OC(C)(C)C)O5)cc(C)cc2n1` [Example 242, (S)-tert-butyl ((5-fluoro-2-(2-methoxy-7-methylquinoxalin-5-yl)-7-methyl-7,8-dihydrobenzofuro[5,4-d]thiazol-7-yl)methyl)carbamate], the IC50 was determined as 9.3 nM.

Take `COc1ccc(NC(=O)OC[C@@H]2COc3c(cc(Cl)c4nc(-c5cc(C)cc6nc(OC)cnc56)sc34)O2)cn1` (single isomer, unassigned) [Example 2]: the IC50 stood at 130 nM.
